Results taken from PubChem BioAssay (NCI).
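Cells were grown in 96-well plates and exposed to each compound for 48 hours at five concentrations; endpoints were interpolated linearly between bracketing concentrations, or set to the highest concentration if not reached. Definition used: TGI = concentration required for complete inhibition of growth.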

How the values were obtained:
Assay in all cases: DTP human tumour cell line panel, 48 h
UACC-257 melanoma = system: UACC-257 melanoma
IGROV1 ovarian = system: IGROV1 ovarian
ACHN renal = system: ACHN renal
A549 NSCLC = system: A549 NSCLC
UO-31 renal = system: UO-31 renal
CCRF-CEM leukemia = system: CCRF-CEM leukemia
OVCAR-3 ovarian = system: OVCAR-3 ovarian
OVCAR-8 ovarian = system: OVCAR-8 ovarian
HCC-2998 colon = system: HCC-2998 colon
SK-MEL-5 melanoma = system: SK-MEL-5 melanoma
SW-620 colon = system: SW-620 colon
K-562 leukemia = system: K-562 leukemia
U251 CNS = system: U251 CNS
HL-60(TB) leukemia = system: HL-60(TB) leukemia
HCT-15 colon = system: HCT-15 colon
SK-MEL-28 melanoma = system: SK-MEL-28 melanoma
MOLT-4 leukemia = system: MOLT-4 leukemia
MALME-3M melanoma = system: MALME-3M melanoma
EKVX NSCLC = system: EKVX NSCLC
UACC-62 melanoma = system: UACC-62 melanoma

With `COP(C)(=O)/C(Cc1ccccc1)=N\O` (stereo not given) the TGI (UACC-257 melanoma) was > 100 µM, the TGI (IGROV1 ovarian) was > 100 µM and the TGI (ACHN renal) was > 100 µM. The TGI (A549 NSCLC) was > 100 µM, the TGI (UO-31 renal) was > 100 µM and the TGI (CCRF-CEM leukemia) was > 100 µM. The TGI (OVCAR-3 ovarian) was > 100 µM, the TGI (OVCAR-8 ovarian) was > 100 µM and the TGI (HCC-2998 colon) was > 100 µM. The TGI (SK-MEL-5 melanoma) was > 100 µM, the TGI (SW-620 colon) was > 100 µM and the TGI (K-562 leukemia) was > 100 µM. The TGI (U251 CNS) was > 100 µM, the TGI (HL-60(TB) leukemia) was > 100 µM and the TGI (HCT-15 colon) was > 100 µM. The TGI (SK-MEL-28 melanoma) was > 100 µM and the TGI (MOLT-4 leukemia) was > 100 µM.
For `CC(C)(C)[Si](C)(C)OCCCC#CCO`, the TGI (UACC-257 melanoma) was > 100 µM, the TGI (IGROV1 ovarian) was > 100 µM and the TGI (ACHN renal) was > 100 µM. The TGI (A549 NSCLC) was > 100 µM, the TGI (UO-31 renal) was > 100 µM and the TGI (CCRF-CEM leukemia) was > 100 µM. For the same molecule, the TGI (OVCAR-8 ovarian) was > 100 µM, the TGI (HCC-2998 colon) was > 100 µM and the TGI (SK-MEL-5 melanoma) was > 100 µM. For the same molecule, the TGI (MALME-3M melanoma) was > 100 µM, the TGI (SW-620 colon) was > 100 µM and the TGI (K-562 leukemia) was > 100 µM. The TGI (EKVX NSCLC) was > 100 µM, the TGI (U251 CNS) was > 100 µM and the TGI (HL-60(TB) leukemia) was 70.9 µM. For the same molecule, the TGI (HCT-15 colon) was > 100 µM, the TGI (SK-MEL-28 melanoma) was > 100 µM and the TGI (MOLT-4 leukemia) was > 100 µM. For the same molecule, the TGI (UACC-62 melanoma) was > 100 µM.
With `O=P(O)(O)C(CSc1ccccc1)P(=O)(O)O` the TGI (UACC-257 melanoma) was > 100 µM, the TGI (IGROV1 ovarian) was > 100 µM and the TGI (A549 NSCLC) was > 100 µM. For the same molecule, the TGI (UO-31 renal) was > 100 µM, the TGI (CCRF-CEM leukemia) was > 100 µM and the TGI (OVCAR-3 ovarian) was > 69.2 µM. For the same molecule, the TGI (OVCAR-8 ovarian) was > 100 µM, the TGI (HCC-2998 colon) was > 100 µM and the TGI (SK-MEL-5 melanoma) was > 100 µM. For the same molecule, the TGI (MALME-3M melanoma) was > 100 µM, the TGI (SW-620 colon) was > 100 µM and the TGI (K-562 leukemia) was > 100 µM. For the same molecule, the TGI (EKVX NSCLC) was > 100 µM, the TGI (U251 CNS) was > 100 µM and the TGI (HL-60(TB) leukemia) was > 100 µM. The TGI (HCT-15 colon) was > 100 µM, the TGI (SK-MEL-28 melanoma) was > 100 µM and the TGI (MOLT-4 leukemia) was > 100 µM. The TGI (UACC-62 melanoma) was > 100 µM.
For `O=C(NO)c1coc2ccccc2c1=O`, the TGI (UACC-257 melanoma) was > 100 µM, the TGI (IGROV1 ovarian) was > 100 µM and the TGI (ACHN renal) was > 100 µM. The TGI (A549 NSCLC) was > 100 µM, the TGI (UO-31 renal) was > 100 µM and the TGI (CCRF-CEM leukemia) was > 100 µM. For the same molecule, the TGI (OVCAR-8 ovarian) was > 100 µM, the TGI (HCC-2998 colon) was > 100 µM and the TGI (SK-MEL-5 melanoma) was > 100 µM. For the same molecule, the TGI (MALME-3M melanoma) was > 100 µM, the TGI (SW-620 colon) was > 100 µM and the TGI (K-562 leukemia) was > 100 µM. The TGI (EKVX NSCLC) was > 100 µM, the TGI (U251 CNS) was > 100 µM and the TGI (HL-60(TB) leukemia) was > 100 µM. For the same molecule, the TGI (HCT-15 colon) was > 100 µM, the TGI (SK-MEL-28 melanoma) was > 100 µM and the TGI (MOLT-4 leukemia) was > 100 µM. For the same molecule, the TGI (UACC-62 melanoma) was > 100 µM.
With `C=C1c2c(cc3c(c2O)c(=O)c2ccccc2n3C)OC1(C)C` the TGI (IGROV1 ovarian) was > 100 µM, the TGI (ACHN renal) was > 100 µM and the TGI (UO-31 renal) was > 100 µM. For the same molecule, the TGI (CCRF-CEM leukemia) was > 100 µM, the TGI (OVCAR-3 ovarian) was > 100 µM and the TGI (OVCAR-8 ovarian) was > 100 µM. The TGI (SK-MEL-5 melanoma) was > 100 µM, the TGI (MALME-3M melanoma) was > 100 µM and the TGI (SW-620 colon) was > 100 µM. The TGI (EKVX NSCLC) was > 100 µM, the TGI (U251 CNS) was > 100 µM and the TGI (HL-60(TB) leukemia) was > 100 µM. The TGI (HCT-15 colon) was > 100 µM, the TGI (SK-MEL-28 melanoma) was > 100 µM and the TGI (MOLT-4 leukemia) was > 100 µM. For the same molecule, the TGI (UACC-62 melanoma) was > 100 µM.
`CC[N+]1(C)CCC(O)(c2ccc(Cl)cc2)C(C(=O)c2ccc(Cl)cc2)C1` (stereo not given) showed a TGI (UACC-257 melanoma) of 61 µM, a TGI (IGROV1 ovarian) of 47.9 µM and a TGI (ACHN renal) of 33.5 µM. It also gave a TGI (UO-31 renal) of 34.5 µM, a TGI (CCRF-CEM leukemia) of 19.7 µM and a TGI (OVCAR-3 ovarian) of 43.3 µM. For the same molecule, the TGI (OVCAR-8 ovarian) was > 100 µM, the TGI (HCC-2998 colon) was 36.3 µM and the TGI (MALME-3M melanoma) was 25.6 µM. For the same molecule, the TGI (K-562 leukemia) was 17.2 µM, the TGI (U251 CNS) was 56.8 µM and the TGI (HL-60(TB) leukemia) was > 100 µM. For the same molecule, the TGI (HCT-15 colon) was 41.3 µM, the TGI (SK-MEL-28 melanoma) was 29.4 µM and the TGI (MOLT-4 leukemia) was 41.2 µM. It also gave a TGI (UACC-62 melanoma) of 27.9 µM.
For `Cc1c(-c2cc3n(n2)C(c2cccs2)C(C#N)=C(c2ccccc2)N3)c(=O)n(-c2ccccc2)n1C` (stereo not given), the TGI (UACC-257 melanoma) was 98.7 µM, the TGI (IGROV1 ovarian) was > 100 µM and the TGI (A549 NSCLC) was > 100 µM. The TGI (UO-31 renal) was > 100 µM, the TGI (CCRF-CEM leukemia) was > 100 µM and the TGI (OVCAR-3 ovarian) was > 100 µM. The TGI (OVCAR-8 ovarian) was > 100 µM, the TGI (HCC-2998 colon) was > 100 µM and the TGI (SK-MEL-5 melanoma) was > 85.8 µM. The TGI (MALME-3M melanoma) was > 100 µM, the TGI (SW-620 colon) was > 100 µM and the TGI (K-562 leukemia) was > 100 µM. For the same molecule, the TGI (EKVX NSCLC) was > 100 µM, the TGI (U251 CNS) was > 90.8 µM and the TGI (HL-60(TB) leukemia) was > 100 µM. For the same molecule, the TGI (HCT-15 colon) was > 100 µM, the TGI (SK-MEL-28 melanoma) was > 100 µM and the TGI (MOLT-4 leukemia) was > 100 µM. The TGI (UACC-62 melanoma) was > 100 µM.
Molecule `COc1ccc(Cc2nc3cc(C(F)(F)F)ccc3n2CCCN(C)C)cc1` has a TGI (UACC-257 melanoma) of 33.2 µM, a TGI (IGROV1 ovarian) of 78.9 µM and a TGI (ACHN renal) of 79.9 µM. For the same molecule, the TGI (A549 NSCLC) was 38.9 µM, the TGI (UO-31 renal) was 1.04 µM and the TGI (CCRF-CEM leukemia) was 44 µM. For the same molecule, the TGI (OVCAR-3 ovarian) was 46.1 µM, the TGI (OVCAR-8 ovarian) was > 100 µM and the TGI (HCC-2998 colon) was 13.1 µM. It also gave a TGI (SK-MEL-5 melanoma) of 30.1 µM, a TGI (MALME-3M melanoma) of 29.1 µM and a TGI (SW-620 colon) of 44.7 µM. The TGI (K-562 leukemia) was 34.4 µM, the TGI (EKVX NSCLC) was 65.4 µM and the TGI (U251 CNS) was 31.9 µM. It also gave a TGI (HL-60(TB) leukemia) of 27.1 µM, a TGI (HCT-15 colon) of 48.8 µM and a TGI (SK-MEL-28 melanoma) of 34.6 µM. The TGI (MOLT-4 leukemia) was 16.3 µM and the TGI (UACC-62 melanoma) was 32.1 µM.
